Data on 9 molecules can be found in patent US20250290117A1, “MOLECULAR PHENOTYPIC ANTIMICROBIAL SUSCEPTIBILITY TESTING” (priority 2024, published 2025).

Holding throughout (type): cell-based
Assay [1] has as its system pathogen of the specimen. The experiment in a line: Traditional culture-based antimicrobial susceptibility test (comparison of Table 7). Particulars: E. coli isolate 1189. On the procedure:
Table 7 illustrates the results of an example antimicrobial agent susceptibility test of the current application versus a traditional culture-based antimicrobial agent susceptibility test at multiple incubation timepoints, in accordance with one or more embodiments of the disclosure. These specimens were tested with direct PCR (e.g., no extraction DNA purification step prior to PCR). […] Result Reporting to Healthcare Providers. The results from the antimicrobial exposure are reported to the ordering healthcare provider. This information can be utilized by the healthcare provider when selecting an antimicrobial regimen for their individual patient based on these individual specimen results and patient specific factors. […] The current standard of care for antimicrobial susceptibility testing involves the growth, isolation, and exposure of pathogens to antimicrobials. This traditional culture and sensitivity process can take multiple days to obtain results, limiting the ability of healthcare providers to receive timely results to make actionable changes in patient care or management. Healthcare providers desire a method to obtain antimicrobial susceptibility results with quicker turn-around-time. This application discloses a molecular-based phenotypic antimicrobial susceptibility method which involves pathogen exposure to a panel of antimicrobial agents at their specified minimum inhibitory concentration breakpoints for sensitivity. This method allows for more timely antimicrobial susceptibility results.

Assay [2] has as its system Acinetobacter baumannii. The experiment in a line: Molecular phenotypic antimicrobial susceptibility test (extraction/DNA purification prior to PCR). On the procedure: Detection of Molecular Phenotypic Antimicrobial Susceptibility. Disclosed herein are the methods for the detection of phenotypic antimicrobial susceptibility via molecular methods. The present invention describes how a specimen 100 with a known microbial load is incubated and then exposed to a panel of antimicrobial agents to determine sensitivity (prevention of growth) or resistance (allowance of growth) to the specific antimicrobial agents tested utilizing molecular methods. Sample Collection. Specimens 100 are collected from patients using sterile collection processes that are employed in routine clinical care. Specimens are transported to the testing facility in boric acid preservative. […] The specimens 100 are put through a pathogen identification process using PCR technology (e.g., using the first sample 104). The process for pathogen isolation includes steps of harvesting the pathogen (e.g., via centrifugation), isolating pathogen DNA via a DNA isolation and/or purification kit, and performing PCR on the pathogen DNA via PCR components (e.g., primers, enzymes, buffers) as would be known to the skilled artisan. Simultaneously, an additional aliquot of the same specimen (e.g., the second sample 108) is placed with liquid culture media and incubated for 4-6 hours. This aliquot is used for antimicrobial susceptibility testing if indicated based on the pathogen detection results. […] Specimens 100 with lower pathogen loads could also be utilized in the antibiotic susceptibility phase of testing with or without a longer incubation period. […] Antimicrobial solutions are prepared at known concentrations. The specific antimicrobials and their concentrations are selected based on the pathogen of interest and the described antimicrobial resistance breakpoints for that specimen pathogen and antimicrobial combination. These antimicrobials have been selected based on those commonly utilized by healthcare providers in routine clinical care for the specific type of suspected infection. The number and types of antimicrobials utilized can be customized based on the infection source, pathogen detected, patient-specific factors such as allergies or other health conditions (e.g., chronic kidney disease or concurrent medication use), or healthcare provider preferences such as antimicrobial availability or cost. The antimicrobial solutions are prepared in liquid culture media (such as Muller Hinton Broth) to achieve the desired antimicrobial concentration and are then stored at −80° C. until use. For a given specimen, each antimicrobial is tested at a single or multiple antimicrobial concentration(s) which is its established breakpoints for sensitivity. The antimicrobial solutions are prepared and plated out for each specific pathogen. This allows ease of use on the day of testing after defrosting the plate 112. Table 1, which illustrates the results of molecular phenotypic antimicrobial susceptibility testing when more than one organism is present in the source specimen, provides an example of an antimicrobial plate 112 prepared for this purpose. Of note, control wells containing only culture media are present on all plates 112. This allows for evaluation of pathogen load when no antimicrobial is present. Specimen Exposure to Antimicrobial Agents. The 1 mL aliquot of the specimen 100 previously mixed with culture media and incubated is obtained. Using optical density measurements as a guide, the specimen 100 is diluted to 0.5 McFarland. The specimen 100 is then placed into the previously prepared antimicrobial susceptibility testing plate 112. Each plate 112 is prepared for a single specimen 100 for a specified pathogen based on its detection. For example, if the specimen 100 has more than one pathogen detected that needs different antimicrobial concentrations for exposure due to different minimum inhibitory concentration breakpoints for one or more organisms, then more than one antimicrobial exposure plate 112 may be needed. […]

Assay [3] deals with Acinetobacter baumannii. The experiment in a line: Traditional culture-based antimicrobial susceptibility test. From the text:
Table 2 illustrates the results of an example antimicrobial agent susceptibility test of the current application versus a traditional culture-based antimicrobial agent susceptibility test for […], in accordance with one or more embodiments of the disclosure. This specimen underwent extraction and/or DNA purification prior to PCR. As in Table 1, the results of the test of the current application are similar to the results from the traditional test.
Result Reporting to Healthcare Providers. The results from the antimicrobial exposure are reported to the ordering healthcare provider. This information can be utilized by the healthcare provider when selecting an antimicrobial regimen for their individual patient based on these individual specimen results and patient specific factors. […] The current standard of care for antimicrobial susceptibility testing involves the growth, isolation, and exposure of pathogens to antimicrobials. This traditional culture and sensitivity process can take multiple days to obtain results, limiting the ability of healthcare providers to receive timely results to make actionable changes in patient care or management. Healthcare providers desire a method to obtain antimicrobial susceptibility results with quicker turn-around-time. This application discloses a molecular-based phenotypic antimicrobial susceptibility method which involves pathogen exposure to a panel of antimicrobial agents at their specified minimum inhibitory concentration breakpoints for sensitivity. This method allows for more timely antimicrobial susceptibility results.

Where [4] appears, read: A. baumannii isolate 1, Ct at control (average) 18.811.
The mark [5] stands for this setting: A. baumannii isolate 1, at sensitive breakpoint.
[6] abbreviates: A. baumannii isolate 2, Ct at control (average) 18.763.
The mark [7] stands for this setting: A. baumannii isolate 2, at sensitive breakpoint.
[8] abbreviates: A. baumannii isolate 3, Ct at control (average) 18.799.
Where [9] appears, read: A. baumannii isolate 3, at sensitive breakpoint.
Setting [10] is: A. baumannii isolate 4, Ct at control (average) 18.061.
Where [11] appears, read: A. baumannii isolate 4, at sensitive breakpoint.
Where [12] appears, read: A. baumannii isolate 5, Ct at control (average) 18.191.
The mark [13] stands for this setting: A. baumannii isolate 5, at sensitive breakpoint.

For `CC1(C)S[C@@H]2[C@H](NC(=O)[C@H](N)c3ccccc3)C(=O)N2[C@H]1C(=O)O` [Ampicillin], in assay [1], the “Traditional Culture Result” value is listed as “Resistant”.

Turning to `Cc1nnc(SCC2=C(C(=O)O)N3C(=O)[C@@H](NC(=O)Cn4cnnn4)[C@H]3SC2)s1` [Cefazolin], the “Traditional Culture Result” value in assay [1] is listed as “Resistant”.

Take `CO/N=C(\C(=O)N[C@@H]1C(=O)N2C(C(=O)[O-])=C(C[N+]3(C)CCCC3)CS[C@H]12)c1csc(N)n1` [Cefepime]: the “Ct at Sensitive Breakpoint” value in assay [2] (setting [4]) amounted to 19.944; in assay [2] (setting [6]), 19.194; in assay [2] (setting [8]) it was 19.873; in assay [2] (setting [10]) it was 18.955; in assay [2] (setting [12]), 18.489. The “Molecular Antimicrobial Susceptibility Result” value is “Resistant” in assay [2] (setting [5]); “Resistant” in assay [2] (setting [7]); “Sensitive (Antimicrobial wells with pathogen load detected below the control wells (typically >2 cycle thresholds later) may be reported as Sensitive)” in assay [2] (setting [9]); “Resistant” in assay [2] (setting [11]); “Resistant” in assay [2] (setting [13]). The “Traditional Culture Result” value was “Sensitive” in assay [1]; “Resistant” in assay [3] (A. baumannii isolate 1); “Resistant” in assay [3] (A. baumannii isolate 2); “Sensitive” in assay [3] (A. baumannii isolate 3); “Resistant” in assay [3] (A. baumannii isolate 4); “Resistant” in assay [3] (A. baumannii isolate 5).

Consider `CO[C@@]1(NC(=O)Cc2cccs2)C(=O)N2C(C(=O)O)=C(COC(N)=O)CS[C@@H]21` [Cefoxitin], for which the “Traditional Culture Result” value in assay [1] is “Resistant”.

On to `CO/N=C(\C(=O)N[C@@H]1C(=O)N2C(C(=O)O)=C(CSc3nc(=O)c(=O)[nH]n3C)CS[C@H]12)c1csc(N)n1` [Ceftriaxone], for which the “Ct at Sensitive Breakpoint” value in assay [2] (setting [4]) was 16.497; in assay [2] (setting [6]), 19.075; in assay [2] (setting [8]), 19.667; in assay [2] (setting [10]), 18.774; in assay [2] (setting [12]), 18.571. Further, the “Molecular Antimicrobial Susceptibility Result” value in assay [2] (setting [5]), in assay [2] (setting [7]), in assay [2] (setting [9]), in assay [2] (setting [11]) and in assay [2] (setting [13]) was “Resistant” each time. Further, the “Traditional Culture Result” value in assay [1], in assay [3] (A. baumannii isolate 1), in assay [3] (A. baumannii isolate 2), in assay [3] (A. baumannii isolate 3), in assay [3] (A. baumannii isolate 4) and in assay [3] (A. baumannii isolate 5) was “Resistant” in each case.

In the case of `O=C(O)c1cn(C2CC2)c2cc(N3CCNCC3)c(F)cc2c1=O` [Ciprofloxacin], the “Ct at Sensitive Breakpoint” value was determined as 16.306 in assay [2] (setting [4]); 19.471 in assay [2] (setting [6]); 17.802 in assay [2] (setting [8]); 18.101 in assay [2] (setting [10]); 18.773 in assay [2] (setting [12]). The “Molecular Antimicrobial Susceptibility Result” value in assay [2] (setting [5]), in assay [2] (setting [7]), in assay [2] (setting [9]), in assay [2] (setting [11]) and in assay [2] (setting [13]) was “Resistant” throughout. For the same molecule, the “Traditional Culture Result” value is “Sensitive” in assay [1]; “Resistant” in assay [3] (A. baumannii isolate 1); “Resistant” in assay [3] (A. baumannii isolate 2); “Resistant” in assay [3] (A. baumannii isolate 3); “Resistant” in assay [3] (A. baumannii isolate 4); “Resistant” in assay [3] (A. baumannii isolate 5).

In the case of `C[C@H]1COc2c(N3CCN(C)CC3)c(F)cc3c(=O)c(C(=O)O)cn1c23` [Levofloxacin], the “Ct at Sensitive Breakpoint” value is reported as 17.268 in assay [2] (setting [4]); 19.405 in assay [2] (setting [6]); 18.253 in assay [2] (setting [8]); 18.709 in assay [2] (setting [10]); 19.052 in assay [2] (setting [12]). Moreover, the “Molecular Antimicrobial Susceptibility Result” value in assay [2] (setting [5]), in assay [2] (setting [7]), in assay [2] (setting [9]), in assay [2] (setting [11]) and in assay [2] (setting [13]) was “Resistant” each time.

With `C[C@@H](O)[C@H]1C(=O)N2C(C(=O)O)=C(S[C@@H]3CN[C@H](C(=O)N(C)C)C3)[C@H](C)[C@H]12` [Meropenem], the “Ct at Sensitive Breakpoint” value in assay [2] (setting [4]) turned out to be 18.123; in assay [2] (setting [6]), 19.761; in assay [2] (setting [8]) it was 18.077; in assay [2] (setting [10]), 17.553; in assay [2] (setting [12]) it was 20.173. Besides, the “Molecular Antimicrobial Susceptibility Result” value in assay [2] (setting [5]), in assay [2] (setting [7]), in assay [2] (setting [9]), in assay [2] (setting [11]) and in assay [2] (setting [13]) was “Resistant” throughout. Besides, the “Traditional Culture Result” value in assay [1] is given as “Sensitive”; in assay [3] (A. baumannii isolate 1) it was “Resistant”; in assay [3] (A. baumannii isolate 2), “Resistant”; in assay [3] (A. baumannii isolate 3), “Resistant”; in assay [3] (A. baumannii isolate 4) it was “Resistant”; in assay [3] (A. baumannii isolate 5), “Resistant”.

With Ampicillin/Sulbactam, the results for the “Ct at Sensitive Breakpoint” value in assay [2] (setting [10]) and in assay [2] (setting [12]) were 19.447 and 19.682, respectively. The “Molecular Antimicrobial Susceptibility Result” value in assay [2] (setting [11]) and in assay [2] (setting [13]) was “Sensitive (Antimicrobial wells with pathogen load detected below the control wells (typically >2 cycle thresholds later) may be reported as Sensitive)” each time. Also, the “Traditional Culture Result” value in assay [3] (A. baumannii isolate 4) and in assay [3] (A. baumannii isolate 5) was “Sensitive” throughout.
